Measured values taken from patent US6608082B1, “Treatment of erectile dysfunction using isoquinoline compound melanocortin receptor ligands” (Lion Bioscience AG, priority 1998, dated 2003).
Several values for one entry are separate records, joined by “and”; a condition that tells them apart may be missing. Equal values may be shown once.

Key:
IL-10 = experiment: Increasing levels of IL-10 in mice (plasma ELISA); format: in vivo; conditions: for % IL-10 Induction, IP 30: 30 μg per mouse; for % IL-10 Induction, IP 30 / % IL-10 Induction, IP 300 / % IL-10 Induction, Oral 300 / % IL-10 Induction, Oral 600 / % IL-10 Induction, IP 100: mouse plasma, 90 or 105 minutes; for % IL-10 Induction, IP 300 / % IL-10 Induction, Oral 300: 300 μg per mouse; for % IL-10 Induction, Oral 600: 600 μg per mouse; for % IL-10 Induction, IP 100: 100 μg per mouse
Procedure: Isoquinoline compounds were administered intraperitoneally to mice in doses of 30, 100 or 300 μg/mouse or orally in doses of 300 or 600 μg/mouse. Levels of IL-10 were measured 90 or 105 minutes after administration as indicated. Samples were collected and diluted, when appropriate, as described in Example VI. A 100 μl sample of plasma was assayed by ELISA for IL-10. Briefly, ELISA plates were coated with rat anti-mouse IL-10 monoclonal antibody (Pharmingen; San Diego Calif.). Samples or known concentrations of IL-10 were added to the coated plates and incubated for 2 hr at 37° C. Plates were washed and incubated with biotinylated rat anti-mouse IL-10 (R&D Systems; Minneapolis Minn.) for 1 hr at 37° C. Plates were washed and incubated with streptavidin-HRP 30 min at 37° C., and HRP activity was detected with hydrogen peroxide and TMB using standard immunoassay procedures.

MCR-3 = biological target: T1, MCR-3 (Homo sapiens, UniProt P41968); experiment: Melanocortin receptor binding assay, competition with 125I-HP 467, HEK 293 cells expressing hMCR-3; conditions: binding to MCR-3, HEK 293 cells; read-out: MC-3 IC50
T1 construct: expressed in transfected cells; host or cells: HEK 293
T1 sequence (P41968 whole entry): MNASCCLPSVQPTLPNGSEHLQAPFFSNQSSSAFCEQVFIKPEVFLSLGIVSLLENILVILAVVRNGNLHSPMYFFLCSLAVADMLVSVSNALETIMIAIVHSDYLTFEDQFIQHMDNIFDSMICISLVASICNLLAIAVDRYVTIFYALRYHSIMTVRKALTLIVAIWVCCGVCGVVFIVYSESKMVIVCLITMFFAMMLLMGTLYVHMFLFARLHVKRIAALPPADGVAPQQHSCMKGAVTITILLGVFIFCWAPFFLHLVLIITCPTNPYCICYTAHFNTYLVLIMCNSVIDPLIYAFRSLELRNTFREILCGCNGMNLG
Excerpt: (§1) All cell culture media and reagents were obtained from GibcoBRL (Gaithersburg Md.), except for COSMIC CALF SERUM (HyClone; Logan Utah). HEK-293 cell lines were transfected with the human MC receptors hMCR-1, hMCR-3, and hMCR-4 (Gantz et al., Biochem. Biophys. Res. Comm. 200:1214-1220 (1994); Gantz et al., J. Biol. Chem. 268:8246-8250 (1993); Gantz et al. J. Biol. Chem. 268:15174-15179 (1993); Haskell-Leuvano et al., Biochem. Biophys. Res. Comm. 204:1137-1142 (1994); each of which is incorporated herein by reference). Vectors for construction of an hMCR-5 expressing cell line were obtained, and a line of HEK 293 cells expressing hMCR-5 was constructed (Gantz, supra, 1994). hMCR-5 has been described previously (Franberg et al., Biochem. Biophys. Res. Commun. 236:489-492 (1997); Chowdhary et al., Cytogenet. Cell Genet. 68:1-2 (1995); Chowdhary et al., Cytogenet. Cell Genet. 68:79-81 (1995), each of which is incorporated herein by reference). HEK 293 cells were maintained in DMEM, 25 mM HEPES, 2 mM glutamine, non-essential amino acids, vitamins, sodium pyruvate, 10% COSMIC CALF SERUM, 100 units/ml penicillin, 100 μg/ml streptomycin and 0.2 mg/ml G418 to maintain selection.
(§2) Before assaying, cells were washed once with phosphate buffered saline (“PBS”; without Ca^2+ and Mg^2+), and stripped from the flasks using 0.25% trypsin and 0.5 mM EDTA. Cells were suspended in PBS, 10% COSMIC CALF SERUM and 1 mM CaCl2. Cell suspensions were prepared at a density of 2×10^4 cells/ml for HEK 293 cells expressing hMCR-3, hMCR-4 or hMCR-5, and 1×10^5 cells/ml for HEK 293 cells expressing hMCR-1. Suspensions were placed in a water bath and allowed to warm to 37° C. for 1 hr.
(§3) Binding assays were performed in a total volume of 250 μl for HEK 293 cells. Control and test compounds were dissolved in distilled water. ^125I-HP 467 (50,000 dpm) (2000 Ci/mmol) (custom labeled by Amersham; Arlington Heights Ill.) was prepared in 50 mM Tris, pH 7.4, 2 mg/ml BSA, 10 mM CaCl2, 5 mM MgCl2, 2 mM EDTA and added to each tube. To each tube was added 4×10^3 HEK 293 cells expressing hMCR-3, hMCR-4 or hMCR-5, or 2×10^4 cells expressing hMCR-1. Assays were incubated for 2.5 hr at 37° C.
(§4) GF/B filter plates were prepared by soaking for at least one hour in 5 mg/ml BSA and 10 mM CaCl2. Assays were filtered using a Brandel 96-well cell harvester (Brandel Inc.; Gaithersburg, Md.). The filters were washed four times with cold 50 mM Tris, pH 7.4, the filter plates were dehydrated for 2 hr and 35 μl of MICROSCINT was added to each well. Filter plates were counted using a Packard Topcount (Packard Instrument Co.) and data analyzed using GraphPad PRISM v2.0 (GraphPad Software Inc.; San Diego Calif.) and Microsoft EXCEL v5.0a (Microsoft Corp.; Redmond Wash.).
(§5) To assay isoquinoline compounds, binding assays were performed in duplicate in a 96 well format. HP 467 was prepared in 50 mM Tris, pH 7.4, and ^125I-HP 467 was diluted to give 100,000 dpm per 50 μl. An isoquinoline compound, synthesized as described in Example I, was added to the well in 25 μl aliquots. A 25 μl aliquot of ^125I-HP 467 was added to each well. A 0.2 ml aliquot of suspended cells was added to each well to give the cell numbers indicate above, and the cells were incubated at 37° C. for 2.5 hr. Cells were harvested on GF/B filter plates as described above and counted.
(§6) Some of the isoquinoline compounds were further tested for binding to MCR-3 and MCR-5.

MCR-1 = biological target: T2, MCR-1 (Homo sapiens, UniProt Q01726); experiment: Melanocortin receptor binding assay, competition with 125I-HP 467, HEK 293 cells expressing hMCR-1; conditions: for % Disp. of 125I-HP 467 (first of duplicate) / % Disp. of 125I-HP 467 (second of duplicate): 10 μM isoquinoline compound; for % Disp. of 125I-HP 467 (first of duplicate): HEK 293 cells expressing MCR-1, duplicate 1; for % Disp. of 125I-HP 467 (second of duplicate): HEK 293 cells expressing MCR-1, duplicate 2; for effectiveness as MC receptor ligand: binding to MC receptors, Table 1; for IC50: TRG 2408 and TRG 2409 libraries, inhibition of 125I-HP 467 binding, read-out: MC-1 IC50
T2 construct: expressed in transfected cells; host or cells: HEK 293
T2 sequence (Q01726 whole entry): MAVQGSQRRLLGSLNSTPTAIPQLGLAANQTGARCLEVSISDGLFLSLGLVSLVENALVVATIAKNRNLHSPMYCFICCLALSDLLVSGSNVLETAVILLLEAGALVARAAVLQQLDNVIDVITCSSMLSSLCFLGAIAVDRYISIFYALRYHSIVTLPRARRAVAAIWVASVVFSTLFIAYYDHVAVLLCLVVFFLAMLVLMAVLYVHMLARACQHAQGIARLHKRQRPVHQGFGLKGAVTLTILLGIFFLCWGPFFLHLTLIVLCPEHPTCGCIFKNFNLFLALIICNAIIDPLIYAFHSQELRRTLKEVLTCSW
How it was run: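 Test compounds compete on intact HEK 293 cells carrying hMCR-1 (2×10^4 per tube) or hMCR-4 (4×10^3 per tube), suspended in PBS, 10% calf serum, 1 mM CaCl2.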

MCR-5 = biological target: T3, MCR-5 (Homo sapiens, UniProt P33032); experiment: Melanocortin receptor binding assay, competition with 125I-HP 467, HEK 293 cells expressing hMCR-5; conditions: binding to MCR-5, HEK 293 cells; read-out: MC-5 IC50
T3 construct: expressed in transfected cells; host or cells: HEK 293
T3 sequence (P33032 whole entry): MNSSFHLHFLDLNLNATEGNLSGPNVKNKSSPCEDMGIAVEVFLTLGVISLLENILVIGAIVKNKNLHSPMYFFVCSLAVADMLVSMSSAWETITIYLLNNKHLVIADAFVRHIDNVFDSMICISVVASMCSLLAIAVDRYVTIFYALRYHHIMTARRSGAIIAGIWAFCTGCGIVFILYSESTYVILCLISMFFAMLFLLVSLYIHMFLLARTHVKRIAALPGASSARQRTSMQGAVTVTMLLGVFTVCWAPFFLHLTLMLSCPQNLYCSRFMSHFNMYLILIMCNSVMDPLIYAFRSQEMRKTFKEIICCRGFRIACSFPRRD
Excerpt: as §1, §2, §3, §4, §5, §6

IC50 (MCR-3) [µM] | % Disp. of 125I-HP 467 (first of duplicate) (MCR-1) [%] | % Disp. of 125I-HP 467 (second of duplicate) (MCR-1) [%] | specificity for at least one MC receptor over another MC receptor (MCR-1; MCR-1 versus MCR-4 binding) | IC50 (MCR-5) [µM] | IC50 (MCR-1) [µM] | Structure (SMILES) | % IL-10 Induction, IP 30 (IL-10) [%] | % IL-10 Induction, IP 300 (IL-10) [%] | increase of IL-10 (IL-10; plasma levels in mice) | effectiveness as MC receptor ligand (MCR-1) | % IL-10 Induction, Oral 300 (IL-10) [%] | % IL-10 Induction, Oral 600 (IL-10) [%] | % IL-10 Induction, IP 100 (IL-10)
9.68 | 93.9 | 92.2 | about 10 fold | 2.77 |  | CCCOc1ccc(C2C(CNC3CCCCC3)c3ccccc3CN2CCCCC(CN)NC)cc1 (centres unmarked) [TRG 2405-253] | 7 ± 21 | 325 ± 73 | particularly effective at increasing IL-10 | particularly effective MC receptor ligands |  |  | 
5.71 |  |  |  | 2.79 | 0.12 | CCNc1ccc(C2C(CNC3CCCCC3)c3ccccc3CN2CCCC(CN)NCCc2ccccc2)cc1 (centres unmarked) [TRG 2408-62] | 51 ± 15 | 270 ± 71 |  | particularly effective MC receptor ligands | 43 ± 20 | 27 ± 10 | 
5.17 |  |  |  | 1.7 | 0.28 | CCNc1ccc(C2C(CNCc3ccccc3O)c3ccccc3CN2CCCC(CN)NCCc2ccccc2)cc1 (centres unmarked) [TRG 2408-57] | 123 ± 30 | 386 ± 25 |  | particularly effective MC receptor ligands | 57 ± 11 | 104 ± 16 | 247 ± 75 % and 225 ± 31 %
39.8 | 86.6 | 85.2 |  | 8.72 |  | CCNc1ccc(C2C(CNC3CCCCC3)c3ccccc3CN2CCCCC(CN)NC)cc1 (centres unmarked) [TRG 2405-239] | 44 ± 35 | 197 ± 34 |  | particularly effective MC receptor ligands |  | 46 ± 14 | −29 ± 6%
